# Laboratory results reported in patent US10239869B2, “Sulfonamide compounds as voltage-gated sodium channel modulators” (LUPIN LIMITED, priority 2015, dated 2019).
# Like-named read-outs stand apart in the source and are kept apart here.
# Columns and labels:
# Nav 1.7 = Nav 1.7 (Homo sapiens (Human), UniProt Q15858); experiment: Inhibition of sodium channels, Red Membrane Potential Dye FLIPR assay, veratridine depolarization; type: cell-based; details: HEK-293 cells overexpressing the channel
# Nav 1.5 = Nav 1.5 (Homo sapiens (Human), UniProt Q14524); experiment: as above; type: cell-based; details: HEK-293 cells overexpressing the channel
# [1] = read-out: Nav1.5 IC50 (bound given in μM)
# Chain of Nav 1.7 (Q15858 whole entry): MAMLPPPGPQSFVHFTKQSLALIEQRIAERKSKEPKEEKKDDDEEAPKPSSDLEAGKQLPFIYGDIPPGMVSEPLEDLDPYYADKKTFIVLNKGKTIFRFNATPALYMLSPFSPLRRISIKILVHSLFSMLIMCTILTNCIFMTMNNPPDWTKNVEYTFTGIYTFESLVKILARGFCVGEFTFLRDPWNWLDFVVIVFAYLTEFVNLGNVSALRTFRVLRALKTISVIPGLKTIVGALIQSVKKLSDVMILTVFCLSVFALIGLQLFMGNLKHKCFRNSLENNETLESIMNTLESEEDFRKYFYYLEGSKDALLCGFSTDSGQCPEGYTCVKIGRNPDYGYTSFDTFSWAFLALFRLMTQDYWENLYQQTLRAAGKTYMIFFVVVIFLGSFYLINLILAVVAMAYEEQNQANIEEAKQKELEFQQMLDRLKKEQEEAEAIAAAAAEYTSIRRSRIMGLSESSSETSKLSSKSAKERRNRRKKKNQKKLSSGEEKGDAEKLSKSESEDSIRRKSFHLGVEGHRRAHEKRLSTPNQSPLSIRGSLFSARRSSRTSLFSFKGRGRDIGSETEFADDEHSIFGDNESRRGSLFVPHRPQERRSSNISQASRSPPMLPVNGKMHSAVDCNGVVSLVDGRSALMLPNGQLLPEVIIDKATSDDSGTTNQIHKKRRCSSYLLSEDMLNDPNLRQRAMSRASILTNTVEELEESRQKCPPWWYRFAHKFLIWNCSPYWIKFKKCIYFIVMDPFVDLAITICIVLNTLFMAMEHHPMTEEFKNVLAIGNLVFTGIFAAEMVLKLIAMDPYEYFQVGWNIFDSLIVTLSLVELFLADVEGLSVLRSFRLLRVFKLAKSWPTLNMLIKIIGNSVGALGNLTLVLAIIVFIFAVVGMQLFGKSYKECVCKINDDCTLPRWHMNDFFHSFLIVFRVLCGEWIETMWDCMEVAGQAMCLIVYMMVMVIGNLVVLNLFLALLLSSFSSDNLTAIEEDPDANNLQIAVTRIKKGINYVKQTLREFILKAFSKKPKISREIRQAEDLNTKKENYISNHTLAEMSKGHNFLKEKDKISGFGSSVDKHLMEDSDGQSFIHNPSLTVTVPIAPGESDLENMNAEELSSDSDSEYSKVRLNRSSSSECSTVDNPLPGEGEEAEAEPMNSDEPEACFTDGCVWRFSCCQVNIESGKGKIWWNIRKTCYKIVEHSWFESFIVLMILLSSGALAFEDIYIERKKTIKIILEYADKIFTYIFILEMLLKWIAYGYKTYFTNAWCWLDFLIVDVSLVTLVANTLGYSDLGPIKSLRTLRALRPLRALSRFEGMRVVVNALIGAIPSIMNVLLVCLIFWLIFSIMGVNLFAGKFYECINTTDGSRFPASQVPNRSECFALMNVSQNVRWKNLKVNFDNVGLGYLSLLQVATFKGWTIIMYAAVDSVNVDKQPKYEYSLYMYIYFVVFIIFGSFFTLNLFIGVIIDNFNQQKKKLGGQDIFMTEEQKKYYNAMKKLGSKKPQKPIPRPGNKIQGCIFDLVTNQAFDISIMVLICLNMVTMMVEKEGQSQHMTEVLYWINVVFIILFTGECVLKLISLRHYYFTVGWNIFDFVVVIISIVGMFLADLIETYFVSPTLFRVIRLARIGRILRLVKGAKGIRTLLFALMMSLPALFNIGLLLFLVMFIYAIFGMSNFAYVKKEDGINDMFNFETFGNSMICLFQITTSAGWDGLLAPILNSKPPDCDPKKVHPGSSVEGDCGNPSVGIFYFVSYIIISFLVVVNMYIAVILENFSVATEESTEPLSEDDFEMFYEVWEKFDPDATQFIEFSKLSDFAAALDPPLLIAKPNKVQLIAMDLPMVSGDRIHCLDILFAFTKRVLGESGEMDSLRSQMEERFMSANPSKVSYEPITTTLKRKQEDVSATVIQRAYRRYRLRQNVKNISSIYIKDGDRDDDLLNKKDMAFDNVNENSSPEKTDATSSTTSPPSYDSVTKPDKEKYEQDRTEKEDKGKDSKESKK
# Chain of Nav 1.5 (Q14524 whole entry): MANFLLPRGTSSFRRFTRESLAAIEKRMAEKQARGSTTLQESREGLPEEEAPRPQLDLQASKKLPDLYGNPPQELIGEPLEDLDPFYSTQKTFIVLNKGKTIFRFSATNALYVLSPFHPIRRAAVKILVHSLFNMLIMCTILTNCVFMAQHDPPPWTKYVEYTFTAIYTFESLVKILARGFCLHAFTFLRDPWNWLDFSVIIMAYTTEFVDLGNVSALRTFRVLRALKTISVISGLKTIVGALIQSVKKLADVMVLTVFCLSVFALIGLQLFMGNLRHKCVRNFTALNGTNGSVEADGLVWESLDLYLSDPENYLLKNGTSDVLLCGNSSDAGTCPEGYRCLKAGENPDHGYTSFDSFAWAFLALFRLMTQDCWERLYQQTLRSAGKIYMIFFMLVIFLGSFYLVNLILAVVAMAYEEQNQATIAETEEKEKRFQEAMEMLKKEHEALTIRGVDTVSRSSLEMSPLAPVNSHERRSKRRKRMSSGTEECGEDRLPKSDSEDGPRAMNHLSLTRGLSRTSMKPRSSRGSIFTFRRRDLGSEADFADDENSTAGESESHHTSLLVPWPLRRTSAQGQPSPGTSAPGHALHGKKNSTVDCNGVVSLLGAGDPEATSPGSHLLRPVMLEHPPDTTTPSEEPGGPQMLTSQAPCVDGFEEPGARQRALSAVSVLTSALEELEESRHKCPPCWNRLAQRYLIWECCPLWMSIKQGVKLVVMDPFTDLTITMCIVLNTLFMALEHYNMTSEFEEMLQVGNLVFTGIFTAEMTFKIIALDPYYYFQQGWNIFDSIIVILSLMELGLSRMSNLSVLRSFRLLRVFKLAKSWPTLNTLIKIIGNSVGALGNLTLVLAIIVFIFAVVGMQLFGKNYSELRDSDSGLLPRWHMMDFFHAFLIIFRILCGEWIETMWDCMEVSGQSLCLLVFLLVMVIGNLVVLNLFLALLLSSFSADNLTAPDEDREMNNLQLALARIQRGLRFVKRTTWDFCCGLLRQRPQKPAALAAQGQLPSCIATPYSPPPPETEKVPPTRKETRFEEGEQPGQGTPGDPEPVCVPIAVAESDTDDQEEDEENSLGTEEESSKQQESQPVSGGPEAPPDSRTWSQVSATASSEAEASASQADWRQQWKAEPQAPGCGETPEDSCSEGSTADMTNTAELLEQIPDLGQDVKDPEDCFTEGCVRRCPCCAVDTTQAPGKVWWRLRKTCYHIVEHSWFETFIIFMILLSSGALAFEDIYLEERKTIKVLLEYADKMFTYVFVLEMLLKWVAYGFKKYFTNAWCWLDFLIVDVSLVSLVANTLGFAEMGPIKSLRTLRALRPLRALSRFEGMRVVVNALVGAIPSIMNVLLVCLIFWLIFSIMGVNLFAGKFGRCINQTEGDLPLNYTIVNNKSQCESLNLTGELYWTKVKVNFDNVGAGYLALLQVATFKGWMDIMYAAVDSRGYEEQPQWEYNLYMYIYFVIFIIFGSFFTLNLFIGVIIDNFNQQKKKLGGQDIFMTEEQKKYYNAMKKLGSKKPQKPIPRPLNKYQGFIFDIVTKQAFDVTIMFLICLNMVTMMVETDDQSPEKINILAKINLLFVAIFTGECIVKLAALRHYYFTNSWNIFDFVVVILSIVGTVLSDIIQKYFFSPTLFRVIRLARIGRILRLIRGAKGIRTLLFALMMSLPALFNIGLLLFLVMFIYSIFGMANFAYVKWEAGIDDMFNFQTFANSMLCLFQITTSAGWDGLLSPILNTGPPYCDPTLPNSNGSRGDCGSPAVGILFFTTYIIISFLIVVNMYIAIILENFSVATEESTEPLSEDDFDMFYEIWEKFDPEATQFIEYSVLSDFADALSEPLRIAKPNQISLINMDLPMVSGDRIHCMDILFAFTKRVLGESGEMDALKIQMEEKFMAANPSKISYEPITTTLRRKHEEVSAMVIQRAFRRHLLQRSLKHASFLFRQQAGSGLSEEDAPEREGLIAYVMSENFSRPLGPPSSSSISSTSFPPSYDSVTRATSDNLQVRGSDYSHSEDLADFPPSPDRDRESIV
SMILES,IC50 (Nav 1.7; read-out: Nav1.7 IC50),IC50 (Nav 1.5; [1]),other results
"O=S(=O)(Nc1ncccn1)c1ccc2c(c1)OCCC2c1ccc(C(F)(F)F)cc1O[C@@H]1CCOC1 (stereo partly drawn) [Example-186, (S&R)—N-(pyrimidin-2-yl)-4-(2-(((R)-tetrahydrofuran-3-yl)oxy)-4-(trifluoromethyl)phenyl)chroman-7-sulfonamide]",0.083 µM,,Nav1.5 % inhibition @ 10 μM (Nav 1.5): 46%
"O=C(O)c1ccc(-c2cc(C(F)(F)F)ccc2[C@H]2CCOc3cc(S(=O)(=O)Nc4ncccn4)ccc32)cc1 [Example-188, (S&R)-2′-(7-(N-(pyrimidin-2-yl)sulfamoyl)chroman-4-yl)-5′-(trifluoromethyl)-[1,1′-biphenyl]-4-carboxylic acid]",0.067 µM,> 10 µM,
"O=C(O)c1ccc(-c2cc(C(F)(F)F)ccc2[C@@H]2CCOc3cc(S(=O)(=O)Nc4ncc(F)cn4)ccc32)cc1 [Example-189, (S&R)-2′-(7-(N-(5-fluoropyrimidin-2-yl)sulfamoyl)chroman-4-yl)-5′-(trifluoromethyl)-[1,1′-biphenyl]-4-carboxylic acid]",1.81 µM,> 10 µM,
"O=S(=O)(Nc1cccnn1)c1ccc2c(c1)OCC[C@H]2c1ccc(C(F)(F)F)cc1-c1ccc(F)cn1 [Example-199, (S&R)-4-(2-(5-fluoropyridin-2-yl)-4-(trifluoromethyl)phenyl)-N-(pyridazin-3-yl)chroman-7-sulfonamide]",0.355 µM,> 10 µM,
"O=S(=O)(Nc1cccnn1)c1ccc2c(c1)OCC[C@@H]2c1ccc(C(F)(F)F)cc1-c1ccc(F)cn1 [Example-200, (S&R)-4-(2-(5-fluoropyridin-2-yl)-4-(trifluoromethyl)phenyl)-N-(pyridazin-3-yl)chroman-7-sulfonamide]",0.0005 µM,> 10 µM,
"O=S(=O)(Nc1ncccn1)c1ccc2c(c1)OCC[C@H]2c1ccc(C(F)(F)F)cc1OC1COC1 [Example-216, (R&S)-4-(2-(oxetan-3-yloxy)-4-(trifluoromethyl)phenyl)-N-(pyrimidin-2-yl)chroman-7-sulfonamide]",2.73 µM,> 10 µM,
"O=S(=O)(Nc1ncccn1)c1ccc2c(c1)OCC[C@@H]2c1ccc(C(F)(F)F)cc1OC1COC1 [Example-217, (R&S)-4-(2-(oxetan-3-yloxy)-4-(trifluoromethyl)phenyl)-N-(pyrimidin-2-yl)chroman-7-sulfonamide]",0.152 µM,,Nav1.5 % inhibition @ 10 μM (Nav 1.5): 50%
"O=S(=O)(Nc1ncccn1)c1ccc2c(c1)OCC[C@H]2c1ccc(C(F)(F)F)cc1OCCCF [Example-220, (S&R)-4-(2-(3-fluoropropoxy)-4-(trifluoromethyl)phenyl)-N-(pyrimidin-2-yl)chroman-7-sulfonamide]",,> 10 µM,IC50 (Nav 1.7; read-out: Nav1.7 IC50 (bound given in μM)): > 10 µM
"O=S(=O)(Nc1ncccn1)c1ccc2c(c1)OCC[C@@H]2c1ccc(C(F)(F)F)cc1OCCCF [Example-221, (S&R)-4-(2-(3-fluoropropoxy)-4-(trifluoromethyl)phenyl)-N-(pyrimidin-2-yl)chroman-7-sulfonamide]",0.042 µM,,IC50 (Nav 1.5; read-out: Nav1.5 IC50): 1.47 µM
"COc1cc(C(F)(F)F)ccc1[C@@H]1CCOc2cc(S(=O)(=O)Nc3ncccn3)ccc21 [Example-226, (S&R)-4-(2-methoxy-4-(trifluoromethyl)phenyl)-N-(pyrimidin-2-yl)chroman-7-sulfonamide]",2.35 µM,,Nav1.5 % inhibition @ 10 μM (Nav 1.5): 86%
"COc1cc(C(F)(F)F)ccc1[C@H]1CCOc2cc(S(=O)(=O)Nc3ncccn3)ccc21 [Example-227, (S&R)-4-(2-methoxy-4-(trifluoromethyl)phenyl)-N-(pyrimidin-2-yl)chroman-7-sulfonamide]",0.177 µM,> 10 µM,
"COc1cc(C(F)(F)F)ccc1[C@@H]1CCOc2cc(S(=O)(=O)Nc3cccc(F)n3)ccc21 [Example-228, (S&R)—N-(6-fluoropyridin-2-yl)-4-(2-methoxy-4-(trifluoromethyl)phenyl)chroman-7-sulfonamide]",,> 10 µM,Nav1.7 inhibition @ 10 μM (Nav 1.7): 55%
"COc1cc(C(F)(F)F)ccc1[C@H]1CCOc2cc(S(=O)(=O)Nc3cccc(F)n3)ccc21 [Example-229, (S&R)—N-(6-fluoropyridin-2-yl)-4-(2-methoxy-4-(trifluoromethyl)phenyl)chroman-7-sulfonamide]",0.156 µM,,Nav1.5 % inhibition @ 10 μM (Nav 1.5): 42%
"O=C1COCCN1c1cc(C(F)(F)F)ccc1[C@@H]1CCOc2cc(S(=O)(=O)Nc3ncccn3)ccc21 [Example-230, (S&R)-4-(2-(3-oxomorpholino)-4-(trifluoromethyl)phenyl)-N-(pyrimidin-2-yl)chroman-7-sulfonamide]",4.42 µM,> 10 µM,
"O=C1COCCN1c1cc(C(F)(F)F)ccc1[C@H]1CCOc2cc(S(=O)(=O)Nc3ncccn3)ccc21 [Example-231, (S&R)-4-(2-(3-oxomorpholino)-4-(trifluoromethyl)phenyl)-N-(pyrimidin-2-yl)chroman-7-sulfonamide]",0.559 µM,> 10 µM,
"O=S1(=O)CCN(c2cc(C(F)(F)F)ccc2[C@@H]2CCOc3cc(S(=O)(=O)Nc4ncccn4)ccc32)CC1 [Example-232, (S&R)-4-(2-(1,1-dioxidothiomorpholino)-4-(trifluoromethyl)phenyl)-N-(pyrimidin-2-yl)chroman-7-sulfonamide]",,> 10 µM,Nav1.7 inhibition @ 10 μM (Nav 1.7): 36%
"CCCc1cc(C(F)(F)F)ccc1[C@@H]1CCOc2cc(S(=O)(=O)Nc3ncccn3)ccc21 [Example-238, (S&R)-4-(2-propyl-4-(trifluoromethyl)phenyl)-N-(pyrimidin-2-yl)chroman-7-sulfonamide]",1.76 µM,> 10 µM,
"CCCc1cc(C(F)(F)F)ccc1[C@H]1CCOc2cc(S(=O)(=O)Nc3ncccn3)ccc21 [Example-239, (S&R)-4-(2-propyl-4-(trifluoromethyl)phenyl)-N-(pyrimidin-2-yl)chroman-7-sulfonamide]",0.124 µM,,Nav1.5 % inhibition @ 10 μM (Nav 1.5): 62%
"CCCc1cc(C(F)(F)F)ccc1[C@@H]1CCOc2cc(S(=O)(=O)Nc3ncc(F)cn3)ccc21 [Example-240, (S&R)—N-(5-fluoropyrimidin-2-yl)-4-(2-propyl-4-(trifluoromethyl)phenyl)chroman-7-sulfonamide]",2.74 µM,> 10 µM,
"CCCc1cc(C(F)(F)F)ccc1[C@H]1CCOc2cc(S(=O)(=O)Nc3ncc(F)cn3)ccc21 [Example-241, (S&R)—N-(5-fluoropyrimidin-2-yl)-4-(2-propyl-4-(trifluoromethyl)phenyl)chroman-7-sulfonamide]",0.172 µM,> 10 µM,
CCCc1cc(C(F)(F)F)ccc1C1CCOc2cc(S(=O)(=O)Nc3cccnn3)ccc21 (centres unmarked) [Example-242],1.05 µM,,IC50 (Nav 1.5; read-out: Nav1.5 IC50): 3.65 µM
CCCc1cc(C(F)(F)F)ccc1C1CCOc2cc(S(=O)(=O)Nc3cccnn3)ccc21 (centres unmarked) [Example-243],0.092 µM,,IC50 (Nav 1.5; read-out: Nav1.5 IC50): 2.41 µM
"CCCc1cc(C(F)(F)F)ccc1[C@@H]1CCOc2cc(S(=O)(=O)Nc3cccc(F)n3)ccc21 [Example-244, (S&R)—N-(6-fluoropyridin-2-yl)-4-(2-propyl-4-(trifluoromethyl)phenyl)chroman-7-sulfonamide]",0.474 µM,,Nav1.5 % inhibition @ 10 μM (Nav 1.5): 69%
"CCCc1cc(C(F)(F)F)ccc1[C@H]1CCOc2cc(S(=O)(=O)Nc3cccc(F)n3)ccc21 [Example-245, (S&R)—N-(6-fluoropyridin-2-yl)-4-(2-propyl-4-(trifluoromethyl)phenyl)chroman-7-sulfonamide]",0.041 µM,,Nav1.5 % inhibition @ 10 μM (Nav 1.5): 75%
"O=C(O)c1ccc(-c2cc(C(F)(F)F)ccc2[C@H]2CCOc3cc(S(=O)(=O)Nc4ncc(F)cn4)ccc32)cc1 [compound 190, (S&R)-2′-(7-(N-(5-fluoropyrimidin-2-yl)sulfamoyl)chroman-4-yl)-5′-(trifluoromethyl)-[1,1′-biphenyl]-4-carboxylic acid]",0.257 µM,> 10 µM,
